Measured values published in article PMC4836378 (Journal of medicinal chemistry, 2016).
Read-outs that look alike come from different tables or passages of the source.

Tests used:
[1] = biological target: T1, CYP26B1 (Homo sapiens, UniProt Q9NR63); assay: CYP26B1 inhibition assay
T1 sequence (Q9NR63 1-512): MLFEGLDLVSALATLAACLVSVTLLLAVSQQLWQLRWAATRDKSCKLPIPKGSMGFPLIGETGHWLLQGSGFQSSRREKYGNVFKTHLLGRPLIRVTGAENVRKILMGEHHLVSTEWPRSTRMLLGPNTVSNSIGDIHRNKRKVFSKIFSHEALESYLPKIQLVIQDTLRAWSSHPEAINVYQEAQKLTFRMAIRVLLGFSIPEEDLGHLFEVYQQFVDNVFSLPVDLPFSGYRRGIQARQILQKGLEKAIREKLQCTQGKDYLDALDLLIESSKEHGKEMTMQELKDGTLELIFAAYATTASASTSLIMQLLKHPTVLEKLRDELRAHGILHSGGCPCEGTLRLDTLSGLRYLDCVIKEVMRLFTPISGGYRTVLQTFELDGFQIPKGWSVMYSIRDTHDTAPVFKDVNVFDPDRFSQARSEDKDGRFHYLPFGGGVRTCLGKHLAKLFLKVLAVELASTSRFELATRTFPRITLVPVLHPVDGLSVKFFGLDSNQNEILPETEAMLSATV

[2] = biological target: T2, CYP26A1 (Homo sapiens, UniProt O43174); assay: CYP26A1 inhibition assay; settings: for Selectivity towards CYP26A1 compared to CYP26B1 (ratio of IC50): CYP26B1 IC50 versus CYP26A1 IC50
T2 sequence (O43174 1-497): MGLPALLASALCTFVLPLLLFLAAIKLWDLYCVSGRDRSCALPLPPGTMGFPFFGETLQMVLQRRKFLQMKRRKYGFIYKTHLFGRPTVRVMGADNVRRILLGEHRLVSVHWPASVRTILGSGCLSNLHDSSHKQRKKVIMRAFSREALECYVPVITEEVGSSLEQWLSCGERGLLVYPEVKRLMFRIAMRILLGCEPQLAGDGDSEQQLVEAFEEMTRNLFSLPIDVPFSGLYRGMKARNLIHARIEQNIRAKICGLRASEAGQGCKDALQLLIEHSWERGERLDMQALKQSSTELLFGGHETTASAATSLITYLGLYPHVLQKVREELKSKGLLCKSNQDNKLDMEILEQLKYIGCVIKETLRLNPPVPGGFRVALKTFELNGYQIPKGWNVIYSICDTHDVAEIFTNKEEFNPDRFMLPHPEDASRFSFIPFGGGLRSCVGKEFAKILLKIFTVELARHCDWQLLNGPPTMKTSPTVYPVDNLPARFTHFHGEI

[3] = system: atRA metabolism in HepG2 cells; settings: HepG2, 24 hour treatment
[4] = biological target: CYP3A4 (Homo sapiens, UniProt P08684); assay: CYP3A4 inhibition in human liver microsomes; type: in vitro ADME; settings: midazolam; for Percent inhibition of CYP3A4: 10 μM inhibitor, 10 µM
Chain of CYP3A4 (P08684 whole entry): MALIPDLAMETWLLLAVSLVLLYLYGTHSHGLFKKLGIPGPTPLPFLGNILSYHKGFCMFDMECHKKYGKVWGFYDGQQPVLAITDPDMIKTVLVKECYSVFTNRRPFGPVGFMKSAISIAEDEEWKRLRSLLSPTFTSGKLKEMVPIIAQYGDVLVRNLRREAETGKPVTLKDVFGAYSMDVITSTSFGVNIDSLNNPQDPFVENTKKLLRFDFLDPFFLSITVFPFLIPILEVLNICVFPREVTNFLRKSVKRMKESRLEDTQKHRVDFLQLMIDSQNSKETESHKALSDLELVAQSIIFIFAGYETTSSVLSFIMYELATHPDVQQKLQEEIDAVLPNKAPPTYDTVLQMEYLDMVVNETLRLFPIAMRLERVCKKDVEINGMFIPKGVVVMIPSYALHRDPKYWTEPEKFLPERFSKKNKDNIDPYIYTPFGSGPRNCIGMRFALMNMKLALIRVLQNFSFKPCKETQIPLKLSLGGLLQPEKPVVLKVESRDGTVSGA

[5] = biological target: CYP2D6 (Homo sapiens, UniProt P10635); assay: CYP2D6 inhibition in human liver microsomes; type: in vitro ADME
Chain of CYP2D6 (P10635 whole entry): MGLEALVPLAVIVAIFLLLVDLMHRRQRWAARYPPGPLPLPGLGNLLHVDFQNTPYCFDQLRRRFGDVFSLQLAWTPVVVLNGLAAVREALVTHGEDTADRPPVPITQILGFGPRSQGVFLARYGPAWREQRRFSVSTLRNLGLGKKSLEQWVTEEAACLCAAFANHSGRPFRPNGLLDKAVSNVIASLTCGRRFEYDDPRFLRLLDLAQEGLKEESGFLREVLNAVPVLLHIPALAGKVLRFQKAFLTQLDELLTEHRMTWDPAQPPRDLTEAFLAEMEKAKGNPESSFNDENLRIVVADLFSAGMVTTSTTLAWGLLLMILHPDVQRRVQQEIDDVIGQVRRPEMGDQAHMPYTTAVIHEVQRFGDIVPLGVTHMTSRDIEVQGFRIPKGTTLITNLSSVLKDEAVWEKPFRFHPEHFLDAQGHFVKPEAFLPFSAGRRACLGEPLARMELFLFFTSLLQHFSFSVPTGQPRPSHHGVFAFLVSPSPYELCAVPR

[6] = system: RARs in HepG2 cells; assay: Induction of RARβ and CYP26A1 mRNA in HepG2 cells; type: cell-based, human; settings: for RAR antagonistic activity: 100 nM atRA + 1 μM compound; for Magnitude of induction of RARβ and CYP26A1 mRNA compared to atRA treatment alone: 100 nM atRA in combination with 1 μM compound; for Activation of RARs (induction of CYP26A1 and RARβ mRNA): 1 μM compound alone, 24 hours, versus vehicle and atRA
[7] = biological target: T3, human RARα (Homo sapiens, UniProt P10276); assay: Luciferase-based RARα reporter assay; type: cell-based; settings: 1 μM compound, data not shown
T3 sequence (P10276 1-462): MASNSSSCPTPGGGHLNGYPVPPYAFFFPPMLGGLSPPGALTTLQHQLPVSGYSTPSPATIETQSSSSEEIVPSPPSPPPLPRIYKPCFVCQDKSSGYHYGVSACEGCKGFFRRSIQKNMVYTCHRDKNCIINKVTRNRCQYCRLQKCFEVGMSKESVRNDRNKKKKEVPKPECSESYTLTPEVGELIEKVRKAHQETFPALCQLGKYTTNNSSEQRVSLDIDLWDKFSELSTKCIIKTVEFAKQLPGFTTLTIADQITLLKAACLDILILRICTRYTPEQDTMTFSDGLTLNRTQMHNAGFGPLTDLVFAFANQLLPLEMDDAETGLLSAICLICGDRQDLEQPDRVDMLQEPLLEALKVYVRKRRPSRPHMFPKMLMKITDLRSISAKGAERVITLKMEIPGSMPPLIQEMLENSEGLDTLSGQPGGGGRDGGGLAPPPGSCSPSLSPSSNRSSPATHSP

[8] = biological target: T4, human RARγ (Homo sapiens, UniProt P13631); assay: Luciferase-based RARγ reporter assay; type: cell-based; settings: 1 μM compound, data not shown
T4 sequence (P13631 1-454): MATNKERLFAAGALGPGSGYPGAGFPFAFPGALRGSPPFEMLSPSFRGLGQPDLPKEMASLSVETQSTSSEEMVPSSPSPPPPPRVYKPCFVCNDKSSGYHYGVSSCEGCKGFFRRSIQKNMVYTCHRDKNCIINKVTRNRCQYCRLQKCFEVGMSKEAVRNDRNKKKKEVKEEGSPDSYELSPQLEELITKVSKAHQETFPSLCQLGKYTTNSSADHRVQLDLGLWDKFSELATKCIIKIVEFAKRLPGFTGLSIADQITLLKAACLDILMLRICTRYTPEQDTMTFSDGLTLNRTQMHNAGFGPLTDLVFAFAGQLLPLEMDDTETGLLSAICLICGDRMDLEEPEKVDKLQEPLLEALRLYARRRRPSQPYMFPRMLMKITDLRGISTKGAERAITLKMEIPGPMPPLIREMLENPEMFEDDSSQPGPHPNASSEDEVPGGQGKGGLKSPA

[9] = biological target: T5, CYP2B6 (Homo sapiens, UniProt P20813); assay: CYP2B6 inhibition in human liver microsomes; type: in vitro ADME; settings: 10 μM inhibitor, bupropion
T5 sequence (P20813 1-491): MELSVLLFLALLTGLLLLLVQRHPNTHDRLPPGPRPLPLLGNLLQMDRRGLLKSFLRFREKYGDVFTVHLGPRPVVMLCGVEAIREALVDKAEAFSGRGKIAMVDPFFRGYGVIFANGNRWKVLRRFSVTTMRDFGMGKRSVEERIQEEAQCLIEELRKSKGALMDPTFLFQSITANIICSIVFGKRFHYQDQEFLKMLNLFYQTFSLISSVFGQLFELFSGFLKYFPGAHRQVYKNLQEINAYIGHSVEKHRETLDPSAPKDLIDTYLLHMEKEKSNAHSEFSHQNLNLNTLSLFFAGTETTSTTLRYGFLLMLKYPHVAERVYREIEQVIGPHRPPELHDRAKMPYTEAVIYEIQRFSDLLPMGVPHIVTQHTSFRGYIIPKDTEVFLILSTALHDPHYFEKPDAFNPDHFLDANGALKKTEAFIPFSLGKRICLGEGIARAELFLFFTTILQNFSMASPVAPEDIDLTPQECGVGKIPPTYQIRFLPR

[10] = biological target: CYP2C19 (Homo sapiens, UniProt P33261); assay: CYP2C19 inhibition in human liver microsomes; type: in vitro ADME; settings: 10 μM inhibitor, (S)-mephenytoin
Chain of CYP2C19 (P33261 whole entry): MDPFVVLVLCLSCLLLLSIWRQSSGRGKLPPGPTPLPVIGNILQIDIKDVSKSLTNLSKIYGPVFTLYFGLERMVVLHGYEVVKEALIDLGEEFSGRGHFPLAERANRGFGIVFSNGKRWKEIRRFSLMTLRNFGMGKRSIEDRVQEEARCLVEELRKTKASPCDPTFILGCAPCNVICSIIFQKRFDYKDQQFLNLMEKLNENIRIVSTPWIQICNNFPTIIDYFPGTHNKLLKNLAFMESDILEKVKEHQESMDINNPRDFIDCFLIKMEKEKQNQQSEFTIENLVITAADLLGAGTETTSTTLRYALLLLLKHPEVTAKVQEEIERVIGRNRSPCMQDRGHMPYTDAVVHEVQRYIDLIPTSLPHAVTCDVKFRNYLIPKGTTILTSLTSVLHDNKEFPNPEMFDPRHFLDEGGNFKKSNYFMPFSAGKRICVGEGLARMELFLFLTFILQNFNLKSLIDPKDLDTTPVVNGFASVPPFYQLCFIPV

[11] = substrate: CC1=C(/C=C/C(C)=C\C=C\C(C)=C\C(=O)O)C(C)(C)CCC1; assay: cells, lysate or membranes named; settings: other: recombinant CYP26B1, 50-1000 nM 9-cis-RA; pH 7.4; 37.0 °C

CCC(CC)C(c1ccc(Nc2nc3ccccc3s2)cc1)n1cncn1 (stereo not shown) [Compound 3, talarozole]
Ki [1]: 0.46 nM
Ki [2]: 5.1 nM

CC1(C)CCC(C)(C)c2cc(C3(c4ccc5cc(C(=O)O)ccc5c4)SCCS3)ccc21 [Compound 15b, 6-(2-(5,5,8,8-Tetramethyl-5,6,7,8-tetrahydronaphthalen-2-yl)-1,3-dithiolan-2-yl)-2-naphthoic acid]
Selectivity towards CYP26A1 compared to CYP26B1 (ratio of IC50) [2]: 10–20 fold

CC1(C)CCC(C)(C)c2cc(C3(c4ccc5cc(C(=O)O)ccc5c4)OCCO3)ccc21 [Compound 13b, 6-(2-(5,5,8,8-Tetramethyl-5,6,7,8-tetrahydronaphthalen-2-yl)-1,3-dioxolan-2-yl)-2-naphthoic acid]
Selectivity towards CYP26A1 compared to CYP26B1 (ratio of IC50) [2]: 10–20 fold

CC1=C(/C=C/C(C)=C/C=C/C(C)=C/C(=O)O)C(C)(C)CCC1 [atRA, all-trans-retinoic acid]
atRA in cell media ([3]; 100nM atRA alone): 13.2 ± 0.14 nM
atRA in cell media ([3]; 1μM atRA alone): 214 ± 13.6 nM

CC1(C)CCC(C)(C)c2cc(C3(c4ccc(/C=C/C(=O)O)cc4)OCCO3)ccc21 [Compound 22, (E)-3-(4-(2-(5,5,8,8-Tetramethyl-5,6,7,8-tetrahydronaphthalen-2-yl)-1,3-dioxolan-2-yl)phenyl)-acrylic acid]
Percent inhibition of CYP3A4 [4]: free of any CYP3A4 inhibition
inhibition at 10 µM ([5]; human, probe dextromethorphan): 50%
RAR antagonistic activity [6]: do not exhibit an RAR antagonistic activity
Magnitude of induction of RARβ and CYP26A1 mRNA compared to atRA treatment alone [6]: significantly increased
Activation of RARs (induction of CYP26A1 and RARβ mRNA) [6]: none of the three compounds resulted in activation
RARα activation [7]: No measurable RARα and RARγ activation was detected
RARγ activation [8]: No measurable RARα and RARγ activation was detected

CC1(C)CCC(C)(C)c2cc(C3(c4ccc(CCC(=O)O)cc4)OCCO3)ccc21 [Compound 24, 3-{4-[2-(5,5,8,8-Tetramethyl-5,6,7,8-tetrahydronaphthalen-2-yl)-1,3-dioxolan-2-yl]phenyl}4 propanoic acid]
Percent inhibition of CYP3A4 [4]: free of any CYP3A4 inhibition
IC50 for CYP3A4 inhibition [4]: no concentration dependent inhibition
Percent inhibition of CYP2B6 [9]: free of any significant inhibition
Percent inhibition of CYP2D6 ([5]; 10 μM inhibitor, dextromethorphan, 10 µM): free of any significant inhibition
RAR antagonistic activity [6]: do not exhibit an RAR antagonistic activity
Magnitude of induction of RARβ and CYP26A1 mRNA compared to atRA treatment alone [6]: significantly increased
Activation of RARs (induction of CYP26A1 and RARβ mRNA) [6]: none of the three compounds resulted in activation
RARα activation [7]: No measurable RARα and RARγ activation was detected
Percent inhibition of CYP2C19 [10]: free of any significant inhibition
RARγ activation [8]: No measurable RARα and RARγ activation was detected

B1: CYP26B1 (Homo sapiens) (protein)
chain: T1 sequence (Q9NR63 1-512)
Km [11]: 555 nM
kcat [11]: 3.6 pmol/min/pmol P450
